Results from patent US4751295A, “Cephalosporin derivatives” (Bristol-Myers Company, priority 1986, dated 1988).
≈ marks a conversion by molar mass, not a printed value. Like-named read-outs stand apart in the source and are kept apart here.

Experiments:
S. aureus Smith = experiment: Protective Dose50 in mice, S. aureus Smith; type: in vivo; conditions: for ED50: Staphylococcus aureus, read-out: PD50, S. aureus Smith
Protocol: (§1) Table 2, below, gives the Protective Dose50 (PD50) in mice for a number of the compounds of Formula I against selected microorganisms. Table 3 gives blood levels of various compounds of Formula I upon intramuscular administration of the test compounds to mice at a dosage of 20 mg/kg.

[1] = blood levels upon intramuscular administration to mice; type: in vivo; conditions: mouse, im, 20 mg/kg
Protocol: as §1

P. aeruginosa A9843A = experiment: Protective Dose50 in mice, P. aeruginosa A9843A; type: in vivo; conditions: Pseudomonas aeruginosa, read-out: PD50, P. aeruginosa A9843A
Protocol: as §1

[2] = test system: Cephalothinsensitive E. coli (2 strains), Kl. pneumoniae (1 strain) and Pr. mirabilis (2 strains); experiment: MIC, two-fold serial agar dilution, group (G-)-Ia; type: cell-based; conditions: 5 strains
Protocol: (§2) In the primary evaluation of the compounds of this invention, the Minimum Inhibitory Concentrations (MIC's) of the compounds were determined by the two-fold serial agar dilution method in Mueller-Hinton agar against 32 strains of test organisms in six groups.
(G+)Ia: Cephalothinsensitive E. coli (2 strains), Kl. pneumoniae (1
strain) and Pr. mirabilis (2 strains)

[3] = test system: M. morganii (1 strain), Ent. cloacae (2 strains) and Ser. marcescens (2 strains); experiment: MIC, two-fold serial agar dilution, group (G-)-II; type: cell-based; conditions: Mueller-Hinton agar; 5 strains; read-out: Geometric Mean of MIC, (G-)-II
Protocol: as §2
(G-)II: M. morganii (1 strain), Ent. cloacae (2 strains) and Ser.

[4] = test system: Ps. aeruginosa (7 strains); experiment: MIC, two-fold serial agar dilution, group (G-)-III; type: cell-based; conditions: Pseudomonas aeruginosa, Mueller-Hinton agar, read-out: Geometric Mean of MIC, (G-)-III
Protocol: as §2
(G-)III: Ps. aeruginosa (7 strains)

E. coli Juhl = experiment: Protective Dose50 in mice, E. coli Juhl; type: in vivo; conditions: Escherichia coli, read-out: PD50, E. coli Juhl
Protocol: as §1

[5] = test system: Penicillinresistant S. aureus (5 strains); experiment: MIC, two-fold serial agar dilution, group (G+)-Ib; type: cell-based; conditions: Staphylococcus aureus, read-out: Geometric Mean of MIC, (G+)-Ib
Protocol: as §2
(G+)Ib: Penicillinresistant S. aureus (5 strains)

[6] = test system: Cephalothinresistant E. coli (3 strains) and Kl. pneumoniae (2 strains); experiment: MIC, two-fold serial agar dilution, group (G-)-Ib; type: cell-based; conditions: Escherichia coli, read-out: Geometric Mean of MIC, (G-)-Ib, Mueller-Hinton agar; 5 strains
Protocol: as §2
(G-)Ib: Cephalothinresistant E. coli (3 strains) and Kl. pneumoniae (2

[7] = test system: Penicillinsensitive S. aureus (5 strains); experiment: MIC, two-fold serial agar dilution, group (G+)-Ia; type: cell-based; conditions: Staphylococcus aureus, read-out: Geometric Mean of MIC, (G+)-Ia
Protocol: as §2
(G+)Ia: Penicillinsensitive S. aureus (5 strains)

[8] = Mueller-Hinton agar, read-out: Geometric Mean of MIC, (G-)-Ia

Structure (SMILES)	PD50, S. aureus Smith (S. aureus Smith)	ED50 (S. aureus Smith)	AUC [1]	Cmax [1]	half-life [1]	ED50 (P. aeruginosa A9843A)	MIC [2, 8]	MIC [3]	MIC [4]	ED50 (E. coli Juhl)	MIC [5]	MIC [6]	MIC [7]	MIC ([5]; Mueller-Hinton agar, 5 strains)	MIC ([7]; Mueller-Hinton agar, 5 strains)	MIC ([2]; read-out: Geometric Mean of MIC, (G-)-Ia, Mueller-Hinton agar)
CON=C(C(=O)NC1C(=O)N2C(C(=O)[O-])=C(C=CC[n+]3ccccc3)CSC12)c1nsc(N)n1 (stereo not shown) [Compound I-1B, 7-[2-(5-Amino-1,2,4-thiadiazol-3-yl)-2-methoxyiminoacetamido]-3-[3-pyridinio-1-propen-1-yl]-3-cephem-4-carboxylate]	0.65 mg/kg	0.44 mg/kg	11000 ng·h/mL	17000 ng/mL	21 min	7.7 mg/kg										
CON=C(C(=O)NC1C(=O)N2C(C(=O)[O-])=C(C=CC[n+]3ccc4sc(N)nc4c3)CS[C@H]12)c1nsc(N)n1 (stereo partly shown) [Compound I-1C, 7-[2-(5-Amino-1,2,4-thiadiazol-3-yl)-2-methoxyiminoacetamido]-3-[3-(2-amino-5-thiazolo[4,5-c]pyridinio)-1-propen-1-yl]-3-cephem-4-carboxylate]		0.22 mg/kg	18000 ng·h/mL	21000 ng/mL	32 min		0.0071 µg/mL (≈ 0.0124 µM)	0.087 µg/mL (≈ 0.152 µM)	3.8 µg/mL (≈ 6.62 µM)	0.013 mg/kg	0.2 µg/mL (≈ 0.349 µM)	0.033 µg/mL (≈ 0.0575 µM)	0.1 µg/mL (≈ 0.174 µM)			
CON=C(C(=O)NC1C(=O)N2C(C(=O)[O-])=C(/C=C/C[n+]3ccsc3C)CSC12)c1nsc(N)n1 (stereo not shown) [Compound I-1J, 7-[2-(5-Amino-1,2,4-thiadiazol-3-yl)-2-methoxyiminoacetamido]-3-[3-(2-methylthiazolio)-1-propen-1-yl]-3-cephem-4-carboxylate]		0.35 mg/kg	9700 ng·h/mL	19000 ng/mL	16 min		0.025 µg/mL (≈ 0.0479 µM)	0.15 µg/mL (≈ 0.288 µM)	1.6 µg/mL (≈ 3.07 µM)	0.029 mg/kg		0.076 µg/mL (≈ 0.146 µM)		0.35 µg/mL (≈ 0.671 µM)	0.17 µg/mL (≈ 0.326 µM)	
CON=C(C(=O)NC1C(=O)N2C(C(=O)[O-])=C(/C=C/C[n+]3cccc(CO)c3)CSC12)c1nsc(N)n1 (stereo not shown) [Compound I-1K, 7-[2-(5-Amino-1,2,4-thiadiazol-3-yl)-2-methoxyiminoacetamido]-3-[3-(3-hydroxymethylpyridinio)-1-propenyl]-3-cephem-4-carboxylate]		0.53 mg/kg	14000 ng·h/mL	24000 ng/mL	14 min		0.029 µg/mL (≈ 0.0546 µM)	0.2 µg/mL (≈ 0.376 µM)	3.5 µg/mL (≈ 6.58 µM)			0.044 µg/mL (≈ 0.0828 µM)		0.8 µg/mL (≈ 1.5 µM)	0.35 µg/mL (≈ 0.658 µM)	
CNC(=O)c1cc[n+](C/C=C/C2=C(C(=O)[O-])N3C(=O)C(NC(=O)/C(=N\OC)c4nsc(N)n4)C3SC2)cc1 (stereo not shown) [Compound I-1M, 7-[2-(5-Amino-1,2,4-thiadiazol-3-yl)-2-(Z)-methoxyiminoacetamido]-3-[3-(4-N-methylcarbamoylpyridinio)-1-propenyl]-3-cephem-4-carboxylate]		0.96 mg/kg	14000 ng·h/mL	20000 ng/mL	23 min		0.029 µg/mL (≈ 0.0519 µM)	0.17 µg/mL (≈ 0.304 µM)	2.3 µg/mL (≈ 4.12 µM)			0.1 µg/mL (≈ 0.179 µM)		0.7 µg/mL (≈ 1.25 µM)	0.35 µg/mL (≈ 0.627 µM)	
CON=C(C(=O)NC1C(=O)N2C(C(=O)[O-])=C(C=CC[n+]3ccc(C(=O)O)cc3)CSC12)c1nsc(N)n1 (stereo not shown) [Compound I-1N, 7-[2-(5-Amino-1,2,4-thiadiazol-3-yl)-2-methoxyiminoacetamido]-3-[3-(4-carboxypyridinio)-1-propenyl]-3-cephem-4-carboxylate]		2 mg/kg	18000 ng·h/mL	24000 ng/mL	19 min		0.013 µg/mL (≈ 0.0238 µM)	0.3 µg/mL (≈ 0.55 µM)	5.7 µg/mL (≈ 10.4 µM)			0.066 µg/mL (≈ 0.121 µM)		1.6 µg/mL (≈ 2.93 µM)	1.2 µg/mL (≈ 2.2 µM)	
CO/N=C(\C(=O)NC1C(=O)N2C(C(=O)[O-])=C(/C=C/C[n+]3cccc4c3CCC4)CSC12)c1nsc(N)n1 (stereo not shown) [Compound I-1O, 7-[2-(5-Amino-1,2,4-thiadiazol-3-yl)-2-(Z)-methoxyiminoacetamido]-3-[3-(2,3-cyclopentenopyridinio)-1-propenyl]-3-cephem-4-carboxylate]		0.26 mg/kg	17000 ng·h/mL	28000 ng/mL	32 min		0.029 µg/mL (≈ 0.0535 µM)	0.11 µg/mL (≈ 0.203 µM)	14 µg/mL (≈ 25.8 µM)	0.17 mg/kg		0.033 µg/mL (≈ 0.0609 µM)		0.35 µg/mL (≈ 0.646 µM)	0.17 µg/mL (≈ 0.314 µM)	
CCO/N=C(\C(=O)NC1C(=O)N2C(C(=O)[O-])=C(C=CC[n+]3ccc(C(=O)O)cc3)CSC12)c1nsc(N)n1 (stereo not shown) [Compound I-2N, 7-[2-(5-Amino-1,2,4-thiadiazol-3-yl)-2-(Z)-ethoxyiminoacetamido]-3-[3-(4-carboxypyridinio)-1-propenyl]-3-cephem-4-carboxylate]		5 mg/kg	12000 ng·h/mL	22000 ng/mL	20 min											
C=CCON=C(C(=O)NC1C(=O)N2C(C(=O)[O-])=C(/C=C/C[n+]3ccc(C(N)=O)cc3)CSC12)c1nsc(N)n1 (stereo not shown) [Compound I-3H, 7-[2-(Amino-1,2,4-thiadiazol-3-yl)-2-(propen-3-yloxyimino)acetamido]-3-[3-(4-carbamoylpyridinio)-1-propenyl]-3-cephem-4-carboxylate]			25000 ng·h/mL	19000 ng/mL	47 min		0.057 µg/mL (≈ 0.0999 µM)	0.52 µg/mL (≈ 0.911 µM)	1.9 µg/mL (≈ 3.33 µM)			0.1 µg/mL (≈ 0.175 µM)		0.4 µg/mL (≈ 0.701 µM)	0.23 µg/mL (≈ 0.403 µM)	
C#CCON=C(C(=O)NC1C(=O)N2C(C(=O)[O-])=C(/C=C/C[n+]3ccc(C(N)=O)cc3)CSC12)c1nsc(N)n1 (stereo not shown) [Compound I-4H, 7-[2-(5-Amino-1,2,4-thiadiazol-3-yl)-2-propargyloxyiminoacetamido]-3-[3-(4-carbamoylpyridinio)-1-propenyl]-3-cephem-4-carboxylate]			16000 ng·h/mL	27000 ng/mL	22 min		0.066 µg/mL (≈ 0.116 µM)	0.6 µg/mL (≈ 1.06 µM)	2.6 µg/mL (≈ 4.57 µM)			0.11 µg/mL (≈ 0.193 µM)		0.46 µg/mL (≈ 0.809 µM)	0.26 µg/mL (≈ 0.457 µM)	
NC(=O)c1cc[n+](C/C=C/C2=C(C(=O)[O-])N3C(=O)C(NC(=O)C(=NOC4CCCC4)c4nsc(N)n4)C3SC2)cc1 (stereo not shown) [Compound I-5H, 7-[2-(5-Amino-1,2,4-thiadiazol-3-yl)-2-cyclopentyloxyiminoacetamido]-3-[3-(4-carbamoylpyridinio)-1-propenyl]-3-cephem-4-carboxylate]			18000 ng·h/mL	22000 ng/mL	32 min		0.2 µg/mL (≈ 0.334 µM)	2.1 µg/mL (≈ 3.51 µM)	4.2 µg/mL (≈ 7.02 µM)			0.46 µg/mL (≈ 0.768 µM)		0.4 µg/mL (≈ 0.668 µM)	0.13 µg/mL (≈ 0.217 µM)	
CON=C(C(=O)NC1C(=O)N2C(C(=O)[O-])=C(C=CC[n+]3ccccc3)CSC12)c1nsc(N)n1 (stereo not shown) [I-IB E/Z = 1/4, 7-[2-(5-Amino-1,2,4-thiadiazol-3-yl)-2-methoxyiminoacetamido]-3-[3-pyridinio-1-propen-1-yl]-3-cephem-4-carboxylate]								0.35 µg/mL (≈ 0.698 µM)	3.5 µg/mL (≈ 6.98 µM)			0.11 µg/mL (≈ 0.219 µM)		0.8 µg/mL (≈ 1.6 µM)	0.35 µg/mL (≈ 0.698 µM)	0.05 µg/mL (≈ 0.0997 µM)
